Test results as given in patent publication US20120258960A1, “NOVEL MULTIFUNCTIONAL PEPTIDASE INHIBITORS, ESPECIALLY FOR MEDICAL USE” (IMTM GMBH, priority 2009, published 2012).

Key:
[1] = test system: human peripheral blood mononuclear cells; experiment: Inhibition of proliferation of PHA-stimulated mononuclear cells (BrdU incorporation); assay type: cell-based; details: PBMC, 1 μg/ml Phytohemagglutinine, 48 hours, test compounds 0.1-250 μM, read-out: MNC IC50
Method: (§1) Peripheral blood mononuclear cells (PBMC) from healthy human volunteers were freshly isolated by density gradient centrifugation. T lymphocytes (T cells, Tc) were isolated from PBMC fractions via nylon wool adherence. Cells were cultured in standard cell culture media and stimulated by addition of 1 μg/ml Phytohemagglutinine for 48 hours in 96 well flat-bottom microtitre plates. Test compounds were added at concentration ranges from 0.1-250 μM over the total assay period.
DNA synthesis of proliferating PBMC was assessed by incorporation of nucleotide analogue bromdesoxyuridine (BrdU) and subsequent detection of optical density (OD) at 450 nm.
(§2) Data output was based on raw data and calculation of relative proliferation response in relation to PHA-activated T cells in the absence of test compound (100% control).
(§3) The […] value of proliferation suppression was assessed by graphical evaluation.

T lymphocytes = experiment: Inhibition of proliferation of PHA-stimulated T lymphocytes (tritium thymidine incorporation); assay type: cell-based; details: Homo sapiens, T-lymphocyte, 1 μg/ml Phytohemagglutinine, 48 hours, test compounds 0.1-250 μM, read-out: T cells IC50
Method: as §1
DNA synthesis of proliferating T cells was determined by incorporation of radio labelled tritium thymidine and subsequent radio detection.
as §2, §3

[2] = biological target: human recombinant Aminopeptidase N (Homo sapiens, UniProt P15144); experiment: Measurement of APN activity (fluorogenic substrate (Ala)2-R110); assay type: biochemical; details: human recombinant APN approx. 5 nM, substrate 0.5 μM, pH 7.5
Sequence of human recombinant Aminopeptidase N (P15144 whole entry): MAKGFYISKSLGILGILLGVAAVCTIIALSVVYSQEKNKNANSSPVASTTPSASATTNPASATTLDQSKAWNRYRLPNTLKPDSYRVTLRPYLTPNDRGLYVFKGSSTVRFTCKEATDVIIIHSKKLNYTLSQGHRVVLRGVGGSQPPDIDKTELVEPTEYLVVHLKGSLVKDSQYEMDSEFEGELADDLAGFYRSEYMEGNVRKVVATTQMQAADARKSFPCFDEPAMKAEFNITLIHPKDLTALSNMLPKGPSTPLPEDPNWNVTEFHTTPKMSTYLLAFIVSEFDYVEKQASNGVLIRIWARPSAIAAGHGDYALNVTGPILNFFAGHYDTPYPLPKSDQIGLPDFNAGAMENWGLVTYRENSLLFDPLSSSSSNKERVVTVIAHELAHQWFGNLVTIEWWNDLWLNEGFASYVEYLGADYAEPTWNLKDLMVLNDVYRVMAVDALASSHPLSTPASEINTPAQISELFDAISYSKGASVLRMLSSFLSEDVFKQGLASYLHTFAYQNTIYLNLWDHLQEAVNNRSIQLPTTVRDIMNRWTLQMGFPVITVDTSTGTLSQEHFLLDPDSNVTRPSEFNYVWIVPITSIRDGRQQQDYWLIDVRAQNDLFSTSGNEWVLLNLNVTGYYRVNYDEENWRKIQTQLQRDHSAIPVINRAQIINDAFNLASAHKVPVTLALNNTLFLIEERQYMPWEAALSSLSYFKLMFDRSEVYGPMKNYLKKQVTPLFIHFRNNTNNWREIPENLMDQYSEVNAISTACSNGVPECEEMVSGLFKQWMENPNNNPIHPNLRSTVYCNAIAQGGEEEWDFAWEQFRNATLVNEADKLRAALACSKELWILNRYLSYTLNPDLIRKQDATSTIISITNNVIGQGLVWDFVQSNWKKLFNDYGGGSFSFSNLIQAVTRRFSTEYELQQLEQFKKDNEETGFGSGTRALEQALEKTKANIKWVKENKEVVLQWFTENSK
Method: Inhibitory effects of test items on the enzymatic activity of human recombinant Aminopeptidase N (final concentration approx. 5 nM) were assessed by using the fluorogenic substrate bis-(L-alanyl)-Rhodamine-110 (bis-trifluoracetate, abbreviation (Ala)2-R110) at a final concentration of 0.5 μM. The assay was performed in 0.05 M TRIS/HCl buffer pH 7.5, supplemented with 0.05% Triton (v/v), 0.05% BSA (w/v), 2 mM MgCl2.
The assay was performed in white microtitre plates for fluorescence measurements.
As controls, (Ala)2-R110 hydrolyzing activity in the absence of any test item as well as the spontaneous substrate hydrolysis was determined.
The release of the fluorescent hydrolysis product Rhodamine 110 was measured at an excitation wavelength of 485 nm and an emission wavelength of 530 nm by using a microtitre fluorescence reader immediately after substrate addition as well as after 30, 60 and 120 min.

[3] = biological target: purified, recombinant human DPIV (Homo sapiens, UniProt P27487); experiment: Measurement of DPIV activity (fluorogenic substrate (Ala-Pro)2-R110)
Sequence of purified, recombinant human DPIV (P27487 whole entry): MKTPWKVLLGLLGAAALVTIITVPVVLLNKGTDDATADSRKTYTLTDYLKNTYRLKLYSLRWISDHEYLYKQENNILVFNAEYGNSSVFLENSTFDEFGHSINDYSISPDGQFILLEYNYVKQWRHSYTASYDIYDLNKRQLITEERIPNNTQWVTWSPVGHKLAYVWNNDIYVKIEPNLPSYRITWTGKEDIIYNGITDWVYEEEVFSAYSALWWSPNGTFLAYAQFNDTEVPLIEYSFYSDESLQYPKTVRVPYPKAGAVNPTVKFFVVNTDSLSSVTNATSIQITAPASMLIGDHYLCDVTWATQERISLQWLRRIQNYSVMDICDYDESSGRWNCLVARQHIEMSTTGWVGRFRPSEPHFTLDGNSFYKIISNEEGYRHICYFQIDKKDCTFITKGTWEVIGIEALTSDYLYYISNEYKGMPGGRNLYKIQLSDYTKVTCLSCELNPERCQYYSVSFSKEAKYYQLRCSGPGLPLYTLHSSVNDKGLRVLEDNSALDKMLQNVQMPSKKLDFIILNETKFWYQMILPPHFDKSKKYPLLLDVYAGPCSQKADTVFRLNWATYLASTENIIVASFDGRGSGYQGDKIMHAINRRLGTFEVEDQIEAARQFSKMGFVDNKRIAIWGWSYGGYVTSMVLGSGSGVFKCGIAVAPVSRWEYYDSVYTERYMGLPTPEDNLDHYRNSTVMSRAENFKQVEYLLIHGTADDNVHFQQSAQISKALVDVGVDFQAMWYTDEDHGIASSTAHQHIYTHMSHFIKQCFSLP
Method: The enzymatic activity of DPIV was assessed by the hydrolysis of the fluorogenic substrate bis-(L-alanyl-prolyl)-Rhodamin-110 (bis-trifluoracetate, abbreviation (Ala-Pro)2-R110). The final substrate concentration was 0.5 μM.
The assay was performed in white microtitre plates for fluorescence measurements. The test items, substrate and enzyme were diluted in assay buffer. […] As controls, the DPIV activity in the absence of test items as well as the spontaneous hydrolysis of the substrate was determined.

## NC(CC(=O)NCCCCNC(=O)C(O)C(N)Cc1ccc(C(=O)O)cc1)Cc1cc(F)ccc1F (stereo not drawn) [drawing 251]
[1]
  IC50: 130 µM
T lymphocytes
  IC50: 112 µM

## CCCCCCCC(=O)NC(CC(=O)NCC(C)(C)CNC(=O)C(O)C(Cc1ccccc1)NC(=O)CCCCCCC)Cc1cc(F)ccc1F (stereo not drawn) [drawing 239]
[1]
  IC50: 10.9 µM
T lymphocytes
  IC50: 8.2 µM

## NC(CC(=O)NC1CCCC(NC(=O)C(O)C(N)Cc2ccccc2)C1)Cc1cc(F)ccc1F (stereo not drawn) [drawing 269]
[1]
  IC50: 200 µM
T lymphocytes
  IC50: 113 µM

## NC(CNC(=O)c1cccc(NC(=O)C(O)C(N)Cc2ccccc2)c1)Cc1cc(F)ccc1F (stereo not drawn) [drawing 277]
[1]
  IC50: 27.2 µM
T lymphocytes
  IC50: 21.4 µM

## CC(C)(CNC(=O)CC(N)Cc1ccccc1)CNC(=O)CC(O)C(N)Cc1ccccc1 (stereo not drawn) [drawing 230]
[1]
  IC50: 200 µM
T lymphocytes
  IC50: ≥ 200 µM

## CC(C)(CNC(=O)CC(N)Cc1cc(F)ccc1F)CNC(=O)C(OC(=O)CCCc1ccccc1)C(N)Cc1ccccc1 (stereo not drawn) [drawing 255]
[1]
  IC50: 2.5 µM
T lymphocytes
  IC50: 3 µM

## NC(CC(=O)NCC1(CNC(=O)C(O)C(N)Cc2ccccc2)CCCC1)Cc1cc(F)ccc1F (stereo not drawn) [drawing 274]
[1]
  IC50: 16.2 µM
T lymphocytes
  IC50: 12.9 µM

## CN(CCCNC(=O)C(O)C(N)Cc1ccccc1)C(=O)CC(N)Cc1cc(F)ccc1F (stereo not drawn) [drawing 243]
[1]
  IC50: 157 µM
T lymphocytes
  IC50: ≥ 200 µM

## CC(C)(CNC(=O)CC(N)Cc1cc(F)ccc1F)CNC(=O)C(O)C(N)Cc1ccc(-c2ccsc2)cc1 (stereo not drawn) [drawing 280]
[1]
  IC50: 4.6 µM
T lymphocytes
  IC50: 6.3 µM

## NC(CC(=O)NCCCNC(=O)C(O)C(N)Cc1ccccc1)Cc1cc(F)ccc1F (stereo not drawn) [drawing 237]
[1]
  IC50: 122 µM
T lymphocytes
  IC50: 70 µM

## CC(C)(CNC(=O)CC(N)Cc1ccccc1)CNC(=O)C(O)C(N)Cc1ccccc1 (stereo not drawn) [drawing 227]
[1]
  IC50: 200 µM
T lymphocytes
  IC50: ≥ 200 µM

## NC(CC(=O)NCCNC(=O)C(O)C(N)Cc1ccccc1)Cc1ccc2ccccc2c1 (stereo not drawn) [drawing 219]
[1]
  IC50: 30.4 µM
T lymphocytes
  IC50: 34 µM

## CCCCCCCC(=O)OC(C(=O)NCCCCNC(=O)CC(N)Cc1cc(F)ccc1F)C(N)Cc1ccccc1 (stereo not drawn) [drawing 256]
[1]
  IC50: 10.6 µM
T lymphocytes
  IC50: 19 µM

## NC(CC(=O)NCCNC(=O)C(O)C(N)Cc1ccccc1)Cc1ccccc1 (stereo not drawn) [drawing 220]
[1]
  IC50: 122 µM
T lymphocytes
  IC50: ≥ 200 µM

## CN(CCCN(C)C(=O)C(O)C(N)Cc1ccccc1)C(=O)CC(N)Cc1cc(F)ccc1F (stereo not drawn) [drawing 238]
[1]
  IC50: 122 µM
T lymphocytes
  IC50: 70 µM

## NC(CC(=O)NCCCCNC(=O)C(O)C(N)Cc1ccccc1)Cc1ccccc1 (stereo not drawn) [drawing 229]
[1]
  IC50: 200 µM
T lymphocytes
  IC50: ≥ 200 µM

## CCCCCCCCCCCCCCCC(=O)OC(C(=O)NCC(C)(C)CNC(=O)CC(N)Cc1cc(F)ccc1F)C(N)Cc1ccccc1 (stereo not drawn) [drawing 249]
[1]
  IC50: 35.8 µM
T lymphocytes
  IC50: 34.4 µM

## NC(CC(=O)NCCNC(=O)CC(O)C(N)Cc1ccccc1)Cc1ccccc1 (stereo not drawn) [drawing 224]
[1]
  IC50: 120 µM
T lymphocytes
  IC50: 157 µM

## NC(CC(=O)Nc1ccc(NC(=O)C(O)C(N)Cc2ccccc2)cc1)Cc1cc(F)ccc1F (stereo not drawn) [drawing 245]
[1]
  IC50: 14.8 µM
T lymphocytes
  IC50: 14.6 µM

## NC(CC(=O)NC(CCCNC(=O)C(O)C(N)Cc1ccccc1)C(=O)O)Cc1cc(F)ccc1F (stereo not drawn) [drawing 241]
[1]
  IC50: 70 µM
T lymphocytes
  IC50: 113 µM

## CCCCCCCC(=O)OC(C(=O)N(C)CCCNC(=O)CC(N)Cc1cc(F)ccc1F)C(N)Cc1ccccc1 (stereo not drawn) [drawing 250]
[1]
  IC50: 11.1 µM
T lymphocytes
  IC50: 9.5 µM

## CC(C)(CNC(=O)CC(CN)Cc1ccccc1)CNC(=O)C(O)C(N)Cc1ccccc1 (stereo not drawn) [drawing 240]
[1]
  IC50: 64.4 µM
T lymphocytes
  IC50: 60.7 µM

## CCCCCCCCCCCCCCCC(=O)NC(CC(=O)NCC(C)(C)CNC(=O)C(O)C(Cc1ccccc1)NC(=O)CCCCCCCCCCCCCCC)Cc1cc(F)ccc1F (stereo not drawn) [drawing 268]
[1]
  IC50: 200 µM
T lymphocytes
  IC50: 97.5 µM

## NC(CC(=O)NCC1(CNC(=O)C(O)C(N)Cc2ccccc2)CCC1)Cc1ccccc1 (stereo not drawn) [drawing 235]
[1]
  IC50: 200 µM
T lymphocytes
  IC50: 157 µM

## CC(C)(CNC(=O)CC(N)Cc1cc(F)ccc1F)CNC(=O)C(O)C(N)Cc1ccccc1 (stereo not drawn) [drawing 232]
[1]
  IC50: 200 µM
T lymphocytes
  IC50: ≥ 200 µM

## CCCC(=O)OC(C(=O)NCC(C)(C)CNC(=O)CC(N)Cc1cc(F)ccc1F)C(N)Cc1ccccc1 (stereo not drawn) [drawing 260]
[1]
  IC50: 95.1 µM
T lymphocytes
  IC50: 55.3 µM

## CC(C)(CNC(=O)CC(N)C(=O)N1CCSC1)CNC(=O)C(O)C(N)Cc1ccccc1 (stereo not drawn) [drawing 236]
[1]
  IC50: 200 µM
T lymphocytes
  IC50: ≥ 200 µM

## NC(CC(=O)NCCCCNC(=O)C(O)C(N)Cc1ccccc1)C(=O)N1CCSC1 (stereo not drawn) [drawing 248]
[1]
  IC50: 28.3 µM
T lymphocytes
  IC50: 35.2 µM

## CCC(CC)(CNC(=O)CC(N)Cc1ccccc1)CNC(=O)C(O)C(N)Cc1ccccc1 (stereo not drawn) [drawing 228]
[1]
  IC50: 49.1 µM
T lymphocytes
  IC50: 14.8 µM

## CCCCCC(=O)OC(C(=O)NCC(C)(C)CNC(=O)CC(N)Cc1cc(F)ccc1F)C(N)Cc1ccccc1 (stereo not drawn) [drawing 261]
[1]
  IC50: 14.3 µM
T lymphocytes
  IC50: 11.3 µM

## CC(C)(CNC(=O)CC(N)Cc1cc(F)ccc1F)CNC(=O)C(O)C(N)Cc1ccc(-c2ccccc2)cc1 (stereo not drawn) [drawing 281]
[1]
  IC50: 119 µM
T lymphocytes
  IC50: 98.5 µM

## CCCCCCCCCCCCCCCC(=O)OC(C(=O)NCCCCNC(=O)CC(N)Cc1cc(F)ccc1F)C(N)Cc1ccccc1 (stereo not drawn) [drawing 259]
[1]
  IC50: 2.1 µM
T lymphocytes
  IC50: 4.1 µM

## NC(CC(=O)NCC1(CNC(=O)C(O)C(N)Cc2ccccc2)CCC1)Cc1cc(F)ccc1F (stereo not drawn) [drawing 263]
[1]
  IC50: 29.9 µM
T lymphocytes
  IC50: 19.2 µM

## CC(C)(CCNC(=O)CC(N)Cc1cc(F)ccc1F)CNC(=O)C(O)C(N)Cc1ccccc1 (stereo not drawn) [drawing 242]
[1]
  IC50: 63.3 µM
T lymphocytes
  IC50: 157 µM

## CCCCCCCCCCCCCC(=O)NC(CC(=O)NCC(C)(C)CNC(=O)C(O)C(Cc1ccccc1)NC(=O)CCCCCCCCCCCCC)Cc1cc(F)ccc1F (stereo not drawn) [drawing 264]
T lymphocytes
  IC50: 98.7 µM

## NC(CC(=O)NCCCCNC(=O)C(O)C(N)Cc1ccc(Br)cc1)Cc1cc(F)ccc1F (stereo not drawn) [drawing 61]
[2]
  IC50: 0.06 µM
[3]
  IC50: 100 nM

## NC(CC(=O)NCCCCCCNC(=O)C(O)C(N)Cc1ccccc1)Cc1ccccc1 (stereo not drawn) [drawing 234]
[1]
  IC50: 200 µM

## CN(CCCNC(=O)CC(N)Cc1cc(F)ccc1F)C(=O)C(O)C(N)Cc1ccccc1 (stereo not drawn) [drawing 246]
T lymphocytes
  IC50: ≥ 200 µM

## NC(CC(=O)Nc1cccc(NC(=O)C(O)C(N)Cc2ccccc2)c1)Cc1cc(F)ccc1F (stereo not drawn) [drawing 64]
[2]
  IC50: 0.35 µM
[3]
  IC50: 500 nM

## CCC(CC)(CNC(=O)CC(N)Cc1cc(F)ccc1F)CNC(=O)C(O)C(N)Cc1ccccc1 (stereo not drawn) [drawing 265]
T lymphocytes
  IC50: 7.2 µM

## CC(C)(CNC(=O)CC(N)Cc1cc(F)ccc1F)CNC(=O)C(O)C(N)Cc1ccc(-c2ccsc2)cc1 (stereo not drawn) [drawing 74]
[2]
  IC50: 0.001 µM
[3]
  IC50: 100 nM

## CCCC(=O)NC(CC(=O)NCC(C)(C)CNC(=O)C(O)C(Cc1ccccc1)NC(=O)CCC)Cc1cc(F)ccc1F (stereo not drawn) [drawing 38]
[2]
  IC50: > 50 µM
[3]
  IC50: > 50000 nM

## CC(C)(CNC(=O)CC(N)Cc1cc(F)ccc1F)CNC(=O)C(O)C(N)Cc1ccc(-c2ccccc2)cc1 (stereo not drawn) [drawing 75]
[2]
  IC50: 0.346 µM
[3]
  IC50: 100 nM

## CC(C)(CNC(=O)CC(N)Cc1cc(F)ccc1F)CNC(=O)C(O)C(N)Cc1ccc(O)cc1 (stereo not drawn) [drawing 73]
[2]
  IC50: > 50 µM
[3]
  IC50: 4600 nM

## CC(C)(CNC(=O)CC(N)Cc1cc(F)ccc1F)CNC(=O)C(OC(=O)CCCc1ccccc1)C(N)Cc1ccccc1 (stereo not drawn) [drawing 49]
[2]
  IC50: 15 µM
[3]
  IC50: 300 nM

## CC(C)(CNC(=O)C(O)C(N)Cc1ccccc1)CNC(=O)C(CC(=O)O)C(N)Cc1cc(F)ccc1F (stereo not drawn) [drawing 262]
T lymphocytes
  IC50: 88.3 µM
